Test results as given in ChEMBL document CHEMBL4270577, “Synthesis, anticancer activity and molecular modeling studies of 1,2,4-triazole derivatives as EGFR inhibitors” (Eur J Med Chem, 2018).

What was measured:
[1] = system: CCRF-CEM; test: Growth inhibition of human CCRF-CEM cells at 10 uM incubated for 48 hrs by sulforhodamine B assay relative to control; format: functional; conditions: read-out: GI
[2] = system: HL-60(TB); test: Growth inhibition of human HL-60(TB) cells at 10 uM incubated for 48 hrs by sulforhodamine B assay relative to control; format: functional; conditions: HL-60, 48 h, read-out: GI
[3] = system: K562; test: Growth inhibition of human K562 cells at 10 uM incubated for 48 hrs by sulforhodamine B assay relative to control; format: functional; conditions: K562, 48 h, read-out: GI
[4] = system: NCI-H522; test: Growth inhibition of human NCI-H522 cells at 10 uM incubated for 48 hrs by sulforhodamine B assay relative to control; format: functional; conditions: NCI-H522, 48 h, read-out: GI
[5] = system: COLO 205; test: Growth inhibition of human COLO205 cells at 10 uM incubated for 48 hrs by sulforhodamine B assay relative to control; format: functional; conditions: COLO 205, 48 h, read-out: GI
[6] = system: HCT-116; test: Growth inhibition of human HCT116 cells at 10 uM incubated for 48 hrs by sulforhodamine B assay relative to control; format: functional; conditions: HCT-116, 48 h, read-out: GI
[7] = system: SF-295; test: Growth inhibition of human SF295 cells at 10 uM incubated for 48 hrs by sulforhodamine B assay relative to control; format: functional; conditions: SF-295, 48 h, read-out: GI
[8] = system: SNB-19; test: Growth inhibition of human SNB19 cells at 10 uM incubated for 48 hrs by sulforhodamine B assay relative to control; format: functional; conditions: SNB-19, 48 h, read-out: GI
[9] = system: LOX IMVI; test: Growth inhibition of human LOXIMVI cells at 10 uM incubated for 48 hrs by sulforhodamine B assay relative to control; format: functional; conditions: read-out: GI
[10] = system: UACC-257; test: Growth inhibition of human UACC257 cells at 10 uM incubated for 48 hrs by sulforhodamine B assay relative to control; format: functional; conditions: UACC-257, 48 h, read-out: GI
[11] = system: UACC-62; test: Growth inhibition of human UACC62 cells at 10 uM incubated for 48 hrs by sulforhodamine B assay relative to control; format: functional; conditions: UACC-62, 48 h, read-out: GI
[12] = system: OVCAR-3; test: Growth inhibition of human OVCAR3 cells at 10 uM incubated for 48 hrs by sulforhodamine B assay relative to control; format: functional; conditions: OVCAR-3, 48 h, read-out: GI
[13] = system: OVCAR-4; test: Growth inhibition of human OVCAR4 cells at 10 uM incubated for 48 hrs by sulforhodamine B assay relative to control; format: functional; conditions: OVCAR-4, 48 h, read-out: GI
[14] = system: SK-OV-3; test: Growth inhibition of human SKOV3 cells at 10 uM incubated for 48 hrs by sulforhodamine B assay relative to control; format: functional; conditions: SK-OV-3, 48 h, read-out: GI
[15] = system: A498; test: Growth inhibition of human A498 cells at 10 uM incubated for 48 hrs by sulforhodamine B assay relative to control; format: functional; conditions: A498, 48 h, read-out: GI
[16] = system: SN12C; test: Growth inhibition of human SN12C cells at 10 uM incubated for 48 hrs by sulforhodamine B assay relative to control; format: functional; conditions: read-out: GI
[17] = system: TK-10; test: Growth inhibition of human TK10 cells at 10 uM incubated for 48 hrs by sulforhodamine B assay relative to control; format: functional; conditions: TK-10, 48 h, read-out: GI
[18] = system: DU-145; test: Growth inhibition of human DU145 cells at 10 uM incubated for 48 hrs by sulforhodamine B assay relative to control; format: functional; conditions: DU-145, 48 h, read-out: GI
[19] = system: Hs-578T; test: Growth inhibition of human Hs 578T cells at 10 uM incubated for 48 hrs by sulforhodamine B assay relative to control; format: functional; conditions: read-out: GI
[20] = system: T47D; test: Growth inhibition of human T47D cells at 10 uM incubated for 48 hrs by sulforhodamine B assay relative to control; format: functional; conditions: read-out: GI
[21] = system: MDA-MB-468; test: Growth inhibition of human MDA-MB-468 cells at 10 uM incubated for 48 hrs by sulforhodamine B assay relative to control; format: functional; conditions: MDA-MB-468, 48 h, read-out: GI
[22] = system: MIA PaCa-2; test: Antiproliferative activity against human MIAPaCa2 cells after 48 hrs by propidium iodide staining-based fluorometric analysis; format: functional, cell-based; conditions: MIA PaCa-2, 48 h
[23] = system: HT-29; test: Antiproliferative activity against human HT-29 cells after 48 hrs by propidium iodide staining-based fluorometric analysis; format: functional, cell-based; conditions: HT-29, 48 h
[24] = system: NCI-H460; test: Antiproliferative activity against human H460 cells after 48 hrs by propidium iodide staining-based fluorometric analysis; format: functional, cell-based; conditions: NCI-H460, 48 h
[25] = system: SK-MEL-2; test: Growth inhibition of human SK-MEL-2 cells at 10 uM incubated for 48 hrs by sulforhodamine B assay relative to control; format: functional; conditions: SK-MEL-2, 48 h, read-out: GI
[26] = system: SK-MEL-28; test: Growth inhibition of human SK-MEL-28 cells at 10 uM incubated for 48 hrs by sulforhodamine B assay relative to control; format: functional; conditions: SK-MEL-28, 48 h, read-out: GI
[27] = system: BT-549; test: Growth inhibition of human BT549 cells at 10 uM incubated for 48 hrs by sulforhodamine B assay relative to control; format: functional; conditions: BT-549, 48 h, read-out: GI

SMILES	inhibition of growth at 10 µM [1]	inhibition of growth at 10 µM [2]	inhibition of growth at 10 µM [3]	inhibition of growth at 10 µM [4]	inhibition of growth at 10 µM [5]	inhibition of growth at 10 µM [6]	inhibition of growth at 10 µM [8]	inhibition of growth at 10 µM [9]	inhibition of growth at 10 µM [10]	inhibition of growth at 10 µM [11]	inhibition of growth at 10 µM [13]	inhibition of growth at 10 µM [15]	inhibition of growth at 10 µM [16]	inhibition of growth at 10 µM [18]	inhibition of growth at 10 µM [19]	inhibition of growth at 10 µM [20]	inhibition of growth at 10 µM [21]	IC50 [22]	IC50 [23]	IC50 [24]	other results
Clc1ccc(-c2cn3nc(-c4ccccc4)nc3s2)cc1	6%	15%	24%	29%	18%	41%	57%	19%	15%	18%	60%	52%	22%	14%	40%	74%	57%	6.5 µM	5.9 µM	5.1 µM	inhibition of growth at 10 µM [7]: 21%; inhibition of growth at 10 µM [12]: 24%; inhibition of growth at 10 µM [14]: 64%; inhibition of growth at 10 µM [17]: 18%
c1ccc(-c2nc3sc(-c4ccccc4)cn3n2)cc1	13%	21%	11%	19%	5%	11%	11%	16%	13%	33%	23%	13%	20%	15%	9%	63%	14%	9.2 µM	8.4 µM	8.3 µM	inhibition of growth at 10 µM [25]: 5%; inhibition of growth at 10 µM [12]: 16%; inhibition of growth at 10 µM [14]: 5%
COc1cc(-c2nc3sc(-c4ccccc4)cn3n2)cc(OC)c1OC	49%	37%	39%	30%	15%	40%	10%	33%	10%	31%	17%	29%	19%	9%	26%	55%	35%	4.7 µM	4.9 µM	4.8 µM	inhibition of growth at 10 µM [7]: 16%; inhibition of growth at 10 µM [25]: 20%; inhibition of growth at 10 µM [26]: 4%; inhibition of growth at 10 µM [17]: 6%; inhibition of growth at 10 µM [27]: 18%
COc1ccc(-c2nc3sc(-c4ccccc4)cn3n2)cc1	35%	32%	76%	70%	63%	60%	34%	45%	28%	42%	37%	56%	37%	16%	40%	65%	81%	4.9 µM	6.6 µM	6.9 µM	inhibition of growth at 10 µM [7]: 38%; inhibition of growth at 10 µM [25]: 40%; inhibition of growth at 10 µM [26]: 32%; inhibition of growth at 10 µM [12]: 41%; inhibition of growth at 10 µM [14]: 32%; inhibition of growth at 10 µM [27]: 26%
